From ChEMBL document CHEMBL1137297, “Synthesis and pharmacological evaluation of novel octahydro-1H-pyrido[1,2-a]pyrazine as mu-opioid receptor antagonists” (J Med Chem, 2006)

Assays:
[1] = target: T1, Delta-type opioid receptor (Homo sapiens, UniProt P41143); test: Inhibition of [3H]diprenorphine binding to human cloned delta opioid receptor expressed in CHO cells at 10 uM; format: cell-based
Mu-type opioid receptor [2] = target: T2, Mu-type opioid receptor (Homo sapiens, UniProt P35372); test: Displacement of [3H]diprenorphine from human cloned mu opioid receptor expressed in CHO cells; format: cell-based
[3] = target: T3, Kappa-type opioid receptor (Homo sapiens, UniProt P41145); test: Inhibition of [3H]diprenorphine binding to human cloned kappa opioid receptor expressed in CHO cells at 10 uM; format: cell-based
Mu-type opioid receptor [4] = target: T2, Mu-type opioid receptor; test: Antagonist activity assessed as inhibition of loperamide-stimulated [35S]GTPgammaS binding to human mu opioid receptor expressed in CHO cells; format: functional, cell-based
[5] = target: T1, Delta-type opioid receptor; test: Displacement of [3H]diprenorphine from human cloned delta opioid receptor expressed in CHO cells; format: cell-based
Mu-type opioid receptor [6] = target: T2, Mu-type opioid receptor; test: Inhibition of [3H]diprenorphine binding to human cloned mu opioid receptor expressed in CHO cells at 10 uM; format: cell-based
[7] = target: T3, Kappa-type opioid receptor; test: Antagonist activity assessed as inhibition of U50488-stimulated [35S]GTP-gamma-S binding to human kappa opioid receptor expressed in CHO cells; format: functional, cell-based
[8] = target: T1, Delta-type opioid receptor; test: Antagonist activity assessed as inhibition of BW373U86-stimulated [35S]GTP-gamma-S binding to human delta opioid receptor expressed in CHO cells; format: functional, cell-based
[9] = target: T3, Kappa-type opioid receptor; test: Displacement of [3H]diprenorphine from human cloned kappa opioid receptor expressed in CHO cells; format: cell-based

T2 sequence (P35372 whole entry): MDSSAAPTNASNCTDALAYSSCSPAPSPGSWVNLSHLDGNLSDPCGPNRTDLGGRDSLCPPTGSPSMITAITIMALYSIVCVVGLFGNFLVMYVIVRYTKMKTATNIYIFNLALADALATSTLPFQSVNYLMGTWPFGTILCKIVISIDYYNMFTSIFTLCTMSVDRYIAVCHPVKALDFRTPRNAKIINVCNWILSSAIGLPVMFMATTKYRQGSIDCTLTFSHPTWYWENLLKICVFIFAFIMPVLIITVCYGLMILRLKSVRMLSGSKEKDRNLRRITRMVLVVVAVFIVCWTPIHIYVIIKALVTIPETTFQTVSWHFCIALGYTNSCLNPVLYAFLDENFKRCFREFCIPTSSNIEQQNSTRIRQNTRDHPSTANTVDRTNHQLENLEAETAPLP
T1 sequence (P41143 whole entry): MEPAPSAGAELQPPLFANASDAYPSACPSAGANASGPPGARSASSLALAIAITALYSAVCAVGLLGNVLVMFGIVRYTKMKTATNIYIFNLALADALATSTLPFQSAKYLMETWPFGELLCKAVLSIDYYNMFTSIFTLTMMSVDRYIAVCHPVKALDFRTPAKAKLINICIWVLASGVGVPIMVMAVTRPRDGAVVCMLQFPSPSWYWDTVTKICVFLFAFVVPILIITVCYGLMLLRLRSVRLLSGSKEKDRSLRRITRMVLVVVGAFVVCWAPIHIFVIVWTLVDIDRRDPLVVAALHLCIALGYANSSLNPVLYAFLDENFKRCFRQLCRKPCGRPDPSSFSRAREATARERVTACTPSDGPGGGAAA
T3 sequence (P41145 whole entry): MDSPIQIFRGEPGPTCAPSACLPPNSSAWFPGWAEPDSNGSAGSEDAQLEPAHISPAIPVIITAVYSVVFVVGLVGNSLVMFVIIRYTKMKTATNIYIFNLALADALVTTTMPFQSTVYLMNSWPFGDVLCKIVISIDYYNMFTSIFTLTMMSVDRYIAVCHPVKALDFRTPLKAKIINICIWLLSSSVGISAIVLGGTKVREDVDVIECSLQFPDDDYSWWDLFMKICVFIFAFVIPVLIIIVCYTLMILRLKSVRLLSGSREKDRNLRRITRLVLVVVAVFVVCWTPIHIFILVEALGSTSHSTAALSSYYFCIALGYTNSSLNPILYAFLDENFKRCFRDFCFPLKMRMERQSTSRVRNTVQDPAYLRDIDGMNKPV

Row | SMILES | inhibition [1] [%] | Ki (Mu-type opioid receptor [2]) [nM] | inhibition [3] [%] | IC50 (Mu-type opioid receptor [4]) [nM] | Ki [5] [nM] | inhibition (Mu-type opioid receptor [6]) [%] | IC50 [7] [nM] | IC50 [8] [nM] | Ki [9] [nM]
1 | CC(=O)N1CCN2C[C@H](C)[C@](C)(c3cccc(O)c3)C[C@@H]2C1 | 47 | 520 | 36 | – | – | – | – | – | –
2 | C[C@H]1CN2CCN(C(=O)CCc3ccccc3)C[C@H]2C[C@@]1(C)c1cccc(O)c1 | – | 160 | 65 | 78 | 140 | – | – | – | –
3 | C[C@H]1CN2CCN(Cc3ccncc3)C[C@H]2C[C@@]1(C)c1cccc(O)c1 | – | 15 | 67 | 18 | 1300 | – | – | – | –
4 | C[C@H]1CN2C[C@H](c3ccccc3)N(Cc3ccccc3)C[C@H]2C[C@@]1(C)c1cccc(C(=O)O)c1 | – | – | 9 | – | 2500 | 44 | – | – | –
5 | C[C@H]1CN2CCN(Cc3ccnc4ccccc34)C[C@H]2C[C@@]1(C)c1cccc(O)c1 | 28 | 88 | 55 | 80 | – | – | – | – | –
6 | C[C@H]1CN2CCN(Cc3ccc(N(C)C)cc3)C[C@H]2C[C@@]1(C)c1cccc(O)c1 | 26 | 750 | 34 | 190 | – | – | – | – | –
7 | C[C@H]1CN2CCNC[C@H]2C[C@@]1(C)c1cccc(O)c1 | 35 | – | 46 | – | – | 49 | – | – | –
8 | COC(=O)c1cccc([C@]2(C)C[C@@H]3CN(Cc4ccccc4)[C@@H](c4ccccc4)CN3C[C@@H]2C)c1 | 39 | – | 6 | – | – | 24 | – | – | –
9 | C[C@H]1CN2CCN(CC3CCCCC3)C[C@H]2C[C@@]1(C)c1cccc(O)c1 | – | 1.1 | – | 1.1 | 65 | – | 36 | 85 | 84
10 | C[C@H]1CN2CCN(S(C)(=O)=O)C[C@H]2C[C@@]1(C)c1cccc(O)c1 | 5 | – | 14 | – | – | 45 | – | – | –
11 | C[C@H]1CN2CCN(S(=O)(=O)c3ccccc3)C[C@H]2C[C@@]1(C)c1cccc(O)c1 | – | 210 | 34 | 140 | 1700 | – | – | – | –
12 | C[C@H]1CN2C[C@H](c3ccccc3)N(Cc3ccccc3)C[C@H]2C[C@@]1(C)c1ccccc1 | 26 | – | 11 | – | – | – | – | – | –
13 | Cc1ccccc1CN1CCN2C[C@H](C)[C@](C)(c3cccc(O)c3)C[C@@H]2C1 | – | 0.98 | – | 1.8 | 89 | – | 15 | 62 | 30
14 | C[C@H]1CN2CCN(C)C[C@H]2C[C@@]1(C)c1cccc(O)c1 | 11 | – | 60 | – | – | 69 | – | – | –
